Test results published in PubChem BioAssay (NCI).
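Where inhibition never reached the appropriate level, the endpoint shown equals the highest concentration tested. Otherwise, values were interpolated linearly from a five-concentration, 48-hour dose response in 96-well plates. TGI: total growth inhibition.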

What was measured:
Assay in all cases: NCI tumour cell line growth inhibition, 48 h
[1] = tested on: NCI/ADR-RES ovarian
[2] = tested on: KM12 colon
[3] = tested on: HCT-15 colon
[4] = tested on: BT-549 breast
[5] = tested on: TK-10 renal
[6] = tested on: SNB-19 CNS
[7] = tested on: NCI-H522 lung
[8] = tested on: SF-268 CNS
[9] = tested on: SK-MEL-2 melanoma
[10] = tested on: UACC-257 melanoma
[11] = tested on: COLO 205 colon
[12] = tested on: OVCAR-4 ovarian
[13] = tested on: SW-620 colon
[14] = tested on: MDA-N
[15] = tested on: OVCAR-5 ovarian
[16] = tested on: A498 renal
[17] = tested on: HT29 colon
[18] = tested on: U251 CNS
[19] = tested on: ACHN renal
[20] = tested on: SK-MEL-28 melanoma
[21] = tested on: HCT-116 colon
[22] = tested on: LOX IMVI melanoma
[23] = tested on: SN12C renal
[24] = tested on: CAKI-1 renal
[25] = tested on: SF-539 CNS
[26] = tested on: MALME-3M melanoma
[27] = tested on: DU-145 prostate
[28] = tested on: NCI-H226 lung
[29] = tested on: CCRF-CEM leukemia
[30] = tested on: MCF7 breast
[31] = tested on: K-562 leukemia
[32] = tested on: M14 melanoma
[33] = tested on: OVCAR-3 ovarian
[34] = tested on: HL-60(TB) leukemia
[35] = tested on: EKVX NSCLC
[36] = tested on: UACC-62 melanoma
[37] = tested on: HS 578T breast
[38] = tested on: HCC-2998 colon
[39] = tested on: NCI-H460 lung
[40] = tested on: A549 NSCLC
[41] = tested on: PC-3 prostate
[42] = tested on: MDA-MB-231 breast
[43] = tested on: 786-0 renal
[44] = tested on: SK-MEL-5 melanoma
[45] = tested on: MDA-MB-435
[46] = tested on: NCI-H23 lung
[47] = tested on: RPMI-8226 leukemia
[48] = tested on: SK-OV-3 ovarian
[49] = tested on: UO-31 renal
[50] = tested on: OVCAR-8 ovarian
[51] = tested on: HOP-62 NSCLC
[52] = tested on: SF-295 CNS
[53] = tested on: HOP-92 NSCLC
[54] = tested on: MOLT-4 leukemia
[55] = tested on: SNB-75 CNS
[56] = tested on: T-47D breast
[57] = tested on: RXF 393 renal
[58] = tested on: IGROV1 ovarian

## O=C(c1ccc(-c2ccccc2)cc1)N(Cc1cccnc1)C(=S)N(Cc1cccnc1)C(=O)c1ccc(-c2ccccc2)cc1
[1]
  TGI: > 100 µM
[2]
  TGI: > 100 µM
[3]
  TGI: > 100 µM
[4]
  TGI: > 100 µM
[5]
  TGI: > 100 µM
[6]
  TGI: > 100 µM
[7]
  TGI: > 100 µM
[8]
  TGI: > 100 µM
[9]
  TGI: > 100 µM
[10]
  TGI: > 100 µM
[11]
  TGI: > 100 µM
[12]
  TGI: > 100 µM
[13]
  TGI: > 100 µM
[14]
  TGI: > 100 µM
[15]
  TGI: > 100 µM
[16]
  TGI: > 100 µM
[17]
  TGI: > 100 µM
[18]
  TGI: > 100 µM
[19]
  TGI: > 100 µM
[20]
  TGI: > 100 µM
[21]
  TGI: > 100 µM
[22]
  TGI: > 100 µM
[23]
  TGI: > 100 µM
[24]
  TGI: > 100 µM
[25]
  TGI: > 100 µM
[26]
  TGI: > 100 µM
[27]
  TGI: > 100 µM
[28]
  TGI: > 100 µM
[29]
  TGI: > 100 µM
[30]
  TGI: > 100 µM
[31]
  TGI: > 100 µM
[32]
  TGI: > 100 µM
[33]
  TGI: > 100 µM
[34]
  TGI: > 100 µM
[35]
  TGI: > 100 µM
[36]
  TGI: > 100 µM
[37]
  TGI: > 100 µM
[38]
  TGI: > 100 µM
[39]
  TGI: > 100 µM
[40]
  TGI: > 100 µM
[41]
  TGI: > 100 µM
[42]
  TGI: > 100 µM
[43]
  TGI: > 100 µM
[44]
  TGI: > 100 µM
[45]
  TGI: > 100 µM
[46]
  TGI: > 100 µM
[47]
  TGI: 72.4 µM
[48]
  TGI: > 100 µM
[49]
  TGI: > 100 µM
[50]
  TGI: > 100 µM
[51]
  TGI: > 100 µM
[52]
  TGI: > 100 µM
[53]
  TGI: > 100 µM

## CCOC(=O)CCC(NC(=O)C(CCC(=O)OCC)NC(=O)C(Cc1ccc([N+](=O)[O-])cc1)NC(C)=O)C(=O)NNC(=O)OC(C)(C)C (stereo not drawn)
[2]
  TGI: > 100 µM
[3]
  TGI: > 100 µM
[4]
  TGI: > 100 µM
[5]
  TGI: > 100 µM
[6]
  TGI: > 100 µM
[54]
  TGI: > 100 µM
[9]
  TGI: > 100 µM
[10]
  TGI: > 100 µM
[11]
  TGI: > 100 µM
[13]
  TGI: > 100 µM
[14]
  TGI: > 100 µM
[15]
  TGI: > 100 µM
[55]
  TGI: > 100 µM
[16]
  TGI: > 100 µM
[17]
  TGI: > 100 µM
[56]
  TGI: > 100 µM
[18]
  TGI: > 100 µM
[19]
  TGI: > 100 µM
[20]
  TGI: > 100 µM
[21]
  TGI: > 100 µM
[23]
  TGI: > 100 µM
[57]
  TGI: 32.9 µM
[26]
  TGI: > 100 µM
[28]
  TGI: > 100 µM
[30]
  TGI: > 100 µM
[31]
  TGI: > 100 µM
[32]
  TGI: > 100 µM
[34]
  TGI: > 100 µM
[35]
  TGI: > 100 µM
[36]
  TGI: > 100 µM
[37]
  TGI: > 100 µM
[38]
  TGI: > 100 µM
[39]
  TGI: > 100 µM
[40]
  TGI: > 100 µM
[58]
  TGI: > 100 µM
[41]
  TGI: > 100 µM
[42]
  TGI: > 100 µM
[43]
  TGI: > 100 µM
[44]
  TGI: > 100 µM
[46]
  TGI: > 100 µM
[47]
  TGI: > 100 µM
[49]
  TGI: > 100 µM
[50]
  TGI: > 100 µM
[51]
  TGI: > 100 µM
[53]
  TGI: > 100 µM
